According to patent US4835152A, “1-(4-Aminophenyl)-4-methyl-7,8-methylenedioxy-3,4-dihydro-5H-2,3-b enzodiazepine and acid addition salts thereof same” (Biogal Gyogyszergyar, priority 1986, dated 1989):

Tests used:
[1] = Examination of stereotypy in rats (method of Costall and Naylor); assay type: in vivo; design: Stereotypy, average score: scale not given here; conditions: for Stereotypy (in words): rats
Source text: 3. Examination of stereotypy in rats
For the measurement of stereotypy the method of B. Costall and R. I. Naylor [Eur. J. Pharmacol. 18, 95 (1972)] was used. The score values in Table 4 are average score values obtained at the time of reading.

[2] = system: oxotremorine-induced salivation; assay: Inhibition of oxotremorine-induced salivation in mice; assay type: in vivo, male CFLP mice; conditions: 6.25-25.0 mg/kg p.o.
Experimental: (§1) 4. Inhibition of oxotremorine in mice
(§2) The examinations were carried out according to the method of R. C. Rathbun and I. H. Slater [Psychopharm. 4, 114 (1963)]. One hour after male, starving CFLP mice were orally pre-treated with a dose of 6.25, 12.5 or 25.0 mg/kg of the compound of Example 1, they were intraperitoneally treated with a dose of 1 mg/kg of 1-[4-(1-pyrrolidinyl)-2-butinyl]-2-pyrrolidinone (oxotremorine).
(§3) The inhibition of oxotremorine-induced tremor and salivation exerted by the compound of Example 1 was measured in relation to the control group treated with oxotremorine only. The strength of the inhibition was expressed in scores (0, 0.5, 1, 2 or 3).

[3] = Dependence studies, DAF (drug admixed food) method; conditions: 0.05% (w/w) in food, 6 weeks, average daily dose 40 mg/kg, two weeks after withdrawal, listed as compound of the invention
[4] = Emetic side-effect; conditions: in vivo
[5] = system: haloperidol-induced decrease in SMA; assay: Measurement of the haloperidol-antagonistic effect in mice (spontaneous motor activity, SMA); assay type: in vivo, male CFLP mice
Experimental: 2. Measurement of the haloperidol-antagonistic effect in mice
Male CFLP mice weighing 20 to 22 g were treated intraperitoneally with a dose of 0.5 mg/kg of 4-[4-(4-chlorophenyl)-4-hydroxy-1-piperidinyl]-1-(4-fluorophenyl)-1-butanone (haloperidol) and the spontaneous motor activity (SMA) was measured, in relation to the data obtained in the controls, by a capacitance-sensitive motimeter. Another group of the test animals was treated also with a dose of 30 mg/kg of the compound of Example 1, 15 minutes after the administration of haloperidol.

[6] = Motility studies on rats (2 hours); assay type: in vivo, male CFY rats; conditions: for Increase in motility: 2 h
Experimental: 1.b. Motility studies on rats
Male CFY rats weighing 120 to 140 g were treated intraperitoneally in groups of three with a dose of 10, 20, 25 or 30 mg/kg of the compound of Example 1, and were immediately placed into the observation box. The experiment lasted for 2 hours.

[7] = Acute toxicity in rats; conditions: rat, in vivo
Source text: (§4) The acute toxicity values (LD50) of the compound of Example 1: […]

[8] = Motility studies on mice (spontaneous motor activity, two-hour experiment); assay type: in vivo, male mice; conditions: for Increase in motility: 2 h
Experimental: 1.a. Motility studies on mice
For studying how the compound prepared according to Example 1 increases the motility in male mice, two-hour experiments were carried out. In order to determine the spontaneous motor activity, the component of hunger-activitywas excluded (the mice were not fasted), thus only the exploratory activity was recorded. The test animals were placed into the observation box immediately after the intraperitoneal treatment.

[9] = Acute toxicity in mice; conditions: mouse, in vivo
Source text: as §4

[10] = system: oxotremorine-induced tremor; assay: Inhibition of oxotremorine-induced tremor in mice (method of Rathbun and Slater); assay type: in vivo, male CFLP mice; conditions: for Inhibition in relation to control group: oxotremorine 1 mg/kg i.p. 1 h later
Experimental: as §1, §2, §3

SMILES: CC1Cc2cc3c(cc2C(c2ccc(N)cc2)=NN1)OCO3 (centres unmarked) [Example 1, 1-(4-aminophenyl)-4-methyl-7,8-methylenedioxy-3,4-dihydro-5H-2,3-benzodiazepine]
- Stereotypy, average score ([1]; 3.125 mg/kg i.p., 15 min): 0.3
- Stereotypy, average score ([1]; 3.125 mg/kg i.p., 30 min): 0.3
- Stereotypy, average score ([1]; 3.125 mg/kg i.p., 60 min): 0.1
- Stereotypy, average score ([1]; 3.125 mg/kg i.p., 90 min): 0
- Stereotypy, average score ([1]; 3.125 mg/kg i.p., 120 min): 0
- Stereotypy, average score ([1]; 3.125 mg/kg i.p., 180 min): 0
- Stereotypy, average score ([1]; 3.125 mg/kg i.p., 240 min): 0
- Stereotypy, average score ([1]; 6.25 mg/kg i.p., 15 min): 1.0
- Stereotypy, average score ([1]; 6.25 mg/kg i.p., 30 min): 1.3
- Stereotypy, average score ([1]; 6.25 mg/kg i.p., 60 min): 0.3
- Stereotypy, average score ([1]; 6.25 mg/kg i.p., 90 min): 0
- Stereotypy, average score ([1]; 6.25 mg/kg i.p., 120 min): 0
- Stereotypy, average score ([1]; 6.25 mg/kg i.p., 180 min): 0
- Stereotypy, average score ([1]; 6.25 mg/kg i.p., 240 min): 0
- Stereotypy, average score ([1]; 6.25 mg/kg p.o., 15 min): 0.7
- Stereotypy, average score ([1]; 6.25 mg/kg p.o., 30 min): 0.7
- Stereotypy, average score ([1]; 6.25 mg/kg p.o., 60 min): 0.6
- Stereotypy, average score ([1]; 6.25 mg/kg p.o., 90 min): 0
- Stereotypy, average score ([1]; 6.25 mg/kg p.o., 120 min): 0
- Stereotypy, average score ([1]; 6.25 mg/kg p.o., 180 min): 0
- Stereotypy, average score ([1]; 6.25 mg/kg p.o., 240 min): 0
- Stereotypy, average score ([1]; 12.5 mg/kg i.p., 15 min): 1.2
- Stereotypy, average score ([1]; 12.5 mg/kg i.p., 30 min): 1.3
- Stereotypy, average score ([1]; 12.5 mg/kg i.p., 60 min): 1.1
- Stereotypy, average score ([1]; 12.5 mg/kg i.p., 90 min): 1.0
- Stereotypy, average score ([1]; 12.5 mg/kg i.p., 120 min): 0
- Stereotypy, average score ([1]; 12.5 mg/kg i.p., 180 min): 0
- Stereotypy, average score ([1]; 12.5 mg/kg i.p., 240 min): 0
- Stereotypy, average score ([1]; 12.5 mg/kg p.o., 15 min): 0.4
- Stereotypy, average score ([1]; 12.5 mg/kg p.o., 30 min): 0.9
- Stereotypy, average score ([1]; 12.5 mg/kg p.o., 60 min): 1.4
- Stereotypy, average score ([1]; 12.5 mg/kg p.o., 90 min): 0.4
- Stereotypy, average score ([1]; 12.5 mg/kg p.o., 120 min): 0
- Stereotypy, average score ([1]; 12.5 mg/kg p.o., 180 min): 0
- Stereotypy, average score ([1]; 12.5 mg/kg p.o., 240 min): 0
- Stereotypy, average score ([1]; 25.0 mg/kg i.p., 15 min): 1.3
- Stereotypy, average score ([1]; 25.0 mg/kg i.p., 30 min): 1.5
- Stereotypy, average score ([1]; 25.0 mg/kg i.p., 60 min): 1.8
- Stereotypy, average score ([1]; 25.0 mg/kg i.p., 90 min): 1.6
- Stereotypy, average score ([1]; 25.0 mg/kg i.p., 120 min): 1.0
- Stereotypy, average score ([1]; 25.0 mg/kg i.p., 180 min): 0.8
- Stereotypy, average score ([1]; 25.0 mg/kg i.p., 240 min): 0.4
- Stereotypy, average score ([1]; 25.0 mg/kg p.o., 15 min): 0.7
- Stereotypy, average score ([1]; 25.0 mg/kg p.o., 30 min): 1.1
- Stereotypy, average score ([1]; 25.0 mg/kg p.o., 60 min): 1.5
- Stereotypy, average score ([1]; 25.0 mg/kg p.o., 90 min): 0.6
- Stereotypy, average score ([1]; 25.0 mg/kg p.o., 120 min): 0.6
- Stereotypy, average score ([1]; 25.0 mg/kg p.o., 180 min): 0.3
- Stereotypy, average score ([1]; 25.0 mg/kg p.o., 240 min): 0
- Stereotypy, average score ([1]; 50.0 mg/kg i.p., 15 min): 1.5
- Stereotypy, average score ([1]; 50.0 mg/kg i.p., 30 min): 2.1
- Stereotypy, average score ([1]; 50.0 mg/kg i.p., 60 min): 2.7
- Stereotypy, average score ([1]; 50.0 mg/kg i.p., 90 min): 2.4
- Stereotypy, average score ([1]; 50.0 mg/kg i.p., 120 min): 2.4
- Stereotypy, average score ([1]; 50.0 mg/kg i.p., 180 min): 1.7
- Stereotypy, average score ([1]; 50.0 mg/kg i.p., 240 min): 0.6
- Stereotypy, average score ([1]; 50.0 mg/kg p.o., 15 min): 1.7
- Stereotypy, average score ([1]; 50.0 mg/kg p.o., 30 min): 1.9
- Stereotypy, average score ([1]; 50.0 mg/kg p.o., 60 min): 2.3
- Stereotypy, average score ([1]; 50.0 mg/kg p.o., 90 min): 2.3
- Stereotypy, average score ([1]; 50.0 mg/kg p.o., 120 min): 1.9
- Stereotypy, average score ([1]; 50.0 mg/kg p.o., 180 min): 1.1
- Stereotypy, average score ([1]; 50.0 mg/kg p.o., 240 min): 0.2
- Stereotypy (in words) [1]: causes stereotypy. This effect develops earlier but it is somewhat weaker than the effect of bromocriptine
- Effect on oxotremorine-induced salivation (in words) [2]: does not inhibit the oxotremorine-induced salivation
- Withdrawal symptoms or signs of dependence [3]: does not have the unfavourable side-effects of the known psychostimulants (emetic effect, proneness to dependence)
- Emetic side-effect [4]: does not have the unfavourable side-effects of the known psychostimulants (emetic effect, proneness to dependence)
- Antagonism of haloperidol-induced decrease in SMA ([5]; 30 mg/kg, 15 min after haloperidol 0.5 mg/kg i.p.): significantly antagonized
- Decrease in SMA ([5]; haloperidol 0.5 mg/kg i.p. + compound of Example 1 30 mg/kg i.p. 15 min later): 17.1%
- Increase in motility ([6]; 10 mg/kg i.p.): 21%
- Increase in motility ([6]; 20 mg/kg i.p.): 87%
- Increase in motility ([6]; 25 mg/kg i.p.): 106%
- Increase in motility ([6]; 30 mg/kg i.p.): 462%
- Effect on motility or spontaneous motor activity (in words) ([6]; i.p.): increases the motility or spontaneous motor activity of mice and rats in a dose-dependent manner
- LD50 ([7]; ip): 250 mg/kg
- LD50 ([7]; po): 350 mg/kg
- Increase in motility ([8]; 3 mg/kg i.p.): 15%
- Increase in motility ([8]; 10 mg/kg i.p.): 131%
- Increase in motility ([8]; 30 mg/kg i.p.): 473%
- Effect on motility or spontaneous motor activity (in words) ([8]; i.p.): increases the motility or spontaneous motor activity of mice and rats in a dose-dependent manner
- LD50 ([9]; ip): 260 mg/kg
- LD50 ([9]; po): 300 mg/kg
- Inhibition in relation to control group ([10]; 6.25 mg/kg p.o.): 17%
- Inhibition in relation to control group ([10]; 12.5 mg/kg p.o.): 50%
- Inhibition in relation to control group ([10]; 25.0 mg/kg p.o.): 74%
- ED50 ([10]; Mus musculus, po, range (9.5-19.1) printed in the next line): 13.5 mg/kg
- Effect on oxotremorine-induced tremor (in words) ([10]; mice): significantly decreases the tremor

SMILES: CC(C)C[C@H]1C(=O)N2CCC[C@H]2[C@]2(O)O[C@](NC(=O)[C@@H]3C=C4c5cccc6[nH]c(Br)c(c56)C[C@H]4N(C)C3)(C(C)C)C(=O)N12 [Bromocriptine, reference compound]
- Stereotypy, average score ([1]; 5 mg/kg i.p., 30 min): 0.2
- Stereotypy, average score ([1]; 5 mg/kg i.p., 60 min): 0.6
- Stereotypy, average score ([1]; 5 mg/kg i.p., 120 min): 0.8
- Stereotypy, average score ([1]; 5 mg/kg i.p., 180 min): 1.1
- Stereotypy, average score ([1]; 5 mg/kg i.p., 240 min): 0.4
- Stereotypy, average score ([1]; 10 mg/kg i.p., 30 min): 0.5
- Stereotypy, average score ([1]; 10 mg/kg i.p., 60 min): 1.0
- Stereotypy, average score ([1]; 10 mg/kg i.p., 120 min): 1.8
- Stereotypy, average score ([1]; 10 mg/kg i.p., 180 min): 1.9
- Stereotypy, average score ([1]; 10 mg/kg i.p., 240 min): 1.5
- Stereotypy, average score ([1]; 20 mg/kg i.p., 30 min): 0.6
- Stereotypy, average score ([1]; 20 mg/kg i.p., 60 min): 1.2
- Stereotypy, average score ([1]; 20 mg/kg i.p., 120 min): 2.2
- Stereotypy, average score ([1]; 20 mg/kg i.p., 180 min): 2.4
- Stereotypy, average score ([1]; 20 mg/kg i.p., 240 min): 1.8
- Stereotypy (in words) [1]: causes stereotypy

SMILES: O=C(CCCN1CCC(O)(c2ccc(Cl)cc2)CC1)c1ccc(F)cc1 [Haloperidol, 4-[4-(4-chlorophenyl)-4-hydroxy-1-piperidinyl]-1-(4-fluorophenyl)-1-butanone, reference compound]
- Decrease in SMA ([5]; haloperidol alone, 0.5 mg/kg i.p., relative to controls): 62.6%
